Measured values taken from patent US11925624B2, “Methods of administering anti-fibrotic therapy” (GENENTECH, INC., priority 2016, dated 2024).
Values joined by “and” are separate entries in the source; they are usually repeats but may differ in a detail not shown here. Equal values may be shown once. “Also recorded” adds a separate entry of the source. Read-outs that look alike come from different tables or passages of the source.

Assay: Phase 1 single ascending dose (Part A) pharmacokinetics, fasted state
Assay type: in vivo, human
Settings: for % AUCextrap: arithmetic mean; for AUC(0-inf) / AUC(0-t) / Cmax / Vd/F / half-life / Tmax / CL renal: human; for AUC(0-inf) / AUC(0-t) / Cmax / Vd/F / half-life / Tmax: plasma
Method: A Phase 1, randomized, blinded, placebo-controlled safety, tolerability, and pharmacokinetic study of Compound I in 80 healthy adult subjects was conducted.
This study was a randomized, blinded, placebo-controlled, ascending-dose study to evaluate the safety, tolerability, and pharmacokinetic (PK) of single (Part A) and multiple (Part B) doses of Compound I in healthy subjects. In addition, the effects of a standard high-fat breakfast, standard low-fat breakfast, and pretreatment and co-administration of a proton pump inhibitor (PPI) on the tolerability and PK of a single dose of Compound I were investigated in 2 groups in Part A. All subjects received their full dose of Compound I, administered as the appropriate number of either 25 or 200 mg tablets. The high fat breakfast comprised the following: total energy: 895 kcal; total fat: 61 g; total protein: 41 g; total carbohydrate: 46 g. The low fat breakfast comprised the following: total energy: 611 kcal; total fat: 14.7 g; total protein: 20.3 g; total carbohydrate: 106.3 g.
In Part A, 56 subjects were studied in 6 groups (Groups A1 to A6) with each of Groups A1, A2, A3, A5, and A6 composed of 8 subjects (6 received Compound I, 2 received placebo) and Group A4 was composed of 16 subjects (12 received Compound I, 4 received placebo). The first dose group (A1) included a sentinel cohort of 2 subjects (1 subject received Compound I and 1 subject received placebo) dosed 48 hours in advance of the remainder of the group.
All subjects in Groups A1 through A6 participated in Treatment Period 1 and received the fasted treatment regimen. In Treatment Period 1, subjects resided at the Clinical Research Unit (CRU) from Day −1 (the day before dosing) to Day 4 (72 hours post-dose). In Treatment Period 1, all doses were administered on the morning of Day 1, after an overnight fast of at least 8 hours. In Groups A1, A2, A3, and A6, each subject received only a single dose of Compound I (25 mg in Group A1, 75 mg in Group A2, 200 mg in Group A3, and 1600 mg in Group A6) or placebo (per the randomization schedule) during the study.
In Part A, all doses in Treatment Period 1 were administered after an overnight fast of at least 8 hours. For the A4 cohort, in Treatment Periods 2 and 3, doses were administered 30 minutes after starting and approximately 10 minutes after completing a high- or low-fat breakfast. In Treatment Period 4, the dose was administered after an overnight fast and following administration of a PPI (PPI was comprised of 3 doses of rabeprazole 20 mg, starting on Day −2 and with the final dose 2 hours before Compound I administration on Day 1). For Group A5, doses during Treatment Period 2 were administered 30 minutes after starting and approximately 10 minutes after completing a low-fat standard breakfast on the morning of Day 1, and doses during Treatment Period 3 were administered on Day 1 after a low-fat meal and following administration of a PPI for 3 days (given as 3 QD doses, with the final PPI dose at 2 hours prior to study drug administration on Day 1).

[1] = 75 mg vs 25 mg (3-fold increase in dose)
[2] = 800-mg dose level (32.0-fold increase in dose)

AUC0-t (norm) (25 mg single dose (A1)): 13400 hr*ng/mL/(mg/kg)
AUC0-∞ (norm) (25 mg single dose (A1)): 13600 hr*ng/mL/(mg/kg)
Ae0-24 (25 mg single dose (A1)): 19.2 mg
CL/F (25 mg single dose (A1)): 90.5 mL/min
CL/F(norm) (25 mg single dose (A1)): 1.23 (mL/min)/kg
Cmax (norm) (25 mg single dose (A1)): 2700 ng/mL/(mg/kg)
fe0-24 (25 mg single dose (A1)): 76.9%
t1/2 (25 mg single dose (A1)): 3.61 h
λZ (25 mg single dose (A1)): 0.192 h⁻¹
% AUCextrap (25 mg single dose (A1)): 1.25%
AUC0-t (norm) (75 mg single dose (A2)): 12600 hr*ng/mL/(mg/kg)
AUC0-∞ (norm) (75 mg single dose (A2)): 12600 hr*ng/mL/(mg/kg)
Ae0-24 (75 mg single dose (A2)): 54.8 mg
CL/F (75 mg single dose (A2)): 96.0 mL/min
CL/F(norm) (75 mg single dose (A2)): 1.32 (mL/min)/kg
Cmax (norm) (75 mg single dose (A2)): 2180 ng/mL/(mg/kg)
fe0-24 (75 mg single dose (A2)): 73.0%
t1/2 (75 mg single dose (A2)): 5.02 h
λZ (75 mg single dose (A2)): 0.138 h⁻¹
% AUCextrap (75 mg single dose (A2)): 0.486%
Fold increase in AUC0-t [1]: 2.9 fold
Fold increase in AUC0-∞ [1]: 2.8 fold
Fold increase in Cmax [1]: 2.5 fold
AUC0-t (norm) (200 mg single dose (A3)): 12000 hr*ng/mL/(mg/kg)
AUC0-∞ (norm) (200 mg single dose (A3)): 12100 hr*ng/mL/(mg/kg)
Ae0-24 (200 mg single dose (A3)): 105 mg
CL/F (200 mg single dose (A3)): 102 mL/min
CL/F(norm) (200 mg single dose (A3)): 1.38 (mL/min)/kg
Cmax (norm) (200 mg single dose (A3)): 1140 ng/mL/(mg/kg)
fe0-24 (200 mg single dose (A3)): 52.5%
λZ (200 mg single dose (A3)): 0.0602 h⁻¹
% AUCextrap (200 mg single dose (A3)): 0.969%
AUC0-t (norm) (400 mg single dose (A4)): 9420 hr*ng/mL/(mg/kg)
AUC0-∞ (norm) (400 mg single dose (A4)): 9650 hr*ng/mL/(mg/kg)
Ae0-24 (400 mg single dose (A4)): 133 mg
CL/F (400 mg single dose (A4)): 121 mL/min
CL/F(norm) (400 mg single dose (A4)): 1.73 (mL/min)/kg
Cmax (norm) (400 mg single dose (A4)): 790 ng/mL/(mg/kg)
fe0-24 (400 mg single dose (A4)): 33.3%
λZ (400 mg single dose (A4)): 0.0594 h⁻¹
% AUCextrap (400 mg single dose (A4)): 2.37%
AUC0-t (norm) (800 mg single dose (A5)): 6700 hr*ng/mL/(mg/kg)
AUC0-∞ (norm) (800 mg single dose (A5)): 7080 hr*ng/mL/(mg/kg)
Ae0-24 (800 mg single dose (A5)): 172 mg
CL/F (800 mg single dose (A5)): 169 mL/min
CL/F(norm) (800 mg single dose (A5)): 2.35 (mL/min)/kg
Cmax (norm) (800 mg single dose (A5)): 532 ng/mL/(mg/kg)
fe0-24 (800 mg single dose (A5)): 21.5%
λZ (800 mg single dose (A5)): 0.0433 h⁻¹
% AUCextrap (800 mg single dose (A5)): 5.17%
Increase in AUC and Cmax (1600 mg dose compared to 800 mg dose): no significant increase
AUC0-t (norm) (1600 mg single dose (A6)): 3090 hr*ng/mL/(mg/kg)
AUC0-∞ (norm) (1600 mg single dose (A6)): 3740 hr*ng/mL/(mg/kg)
Ae0-24 (1600 mg single dose (A6)): 145 mg
CL/F (1600 mg single dose (A6)): 307 mL/min
CL/F(norm) (1600 mg single dose (A6)): 4.46 (mL/min)/kg
Cmax (norm) (1600 mg single dose (A6)): 235 ng/mL/(mg/kg)
fe0-24 (1600 mg single dose (A6)): 9.1% and 9.09%
λZ (1600 mg single dose (A6)): 0.0351 h⁻¹
% AUCextrap (1600 mg single dose (A6)): 6.57%
Dose proportionality of systemic exposure (Cmax and AUC) (200-mg dose and greater): less than proportional
Fold increase in AUC0-t [2]: 16.4 fold
Fold increase in AUC0-∞ [2]: 17.1 fold
Fold increase in Cmax [2]: 6.5 fold
AUC(0-inf) (oral, 25 mg single dose (A1)): 4600 ng·h/mL
AUC(0-t) (oral, 25 mg single dose (A1)): 4550 ng·h/mL
Cmax (oral, 25 mg single dose (A1)): 913 ng/mL
Vd/F (oral, 25 mg single dose (A1), read-out: Vz/F): 28.3 L
Vd/F (oral, 25 mg single dose (A1), read-out: Vz/F(norm)): 0.384 L/kg
half-life (oral, 25 mg, 25 mg single dose (A1)): 3.6 h
Tmax (oral, 25 mg, 25 mg single dose (A1), median, read-out: tmax): 1.5 h
AUC(0-inf) (oral, 75 mg single dose (A2)): 13000 ng·h/mL
AUC(0-t) (oral, 75 mg single dose (A2)): 13000 ng·h/mL
Cmax (oral, 75 mg single dose (A2)): 2250 ng/mL
Vd/F (oral, 75 mg single dose (A2), read-out: Vz/F): 41.7 L
Vd/F (oral, 75 mg single dose (A2), read-out: Vz/F(norm)): 0.574 L/kg
half-life (oral, 75 mg, 75 mg single dose (A2)): 5 h
Tmax (oral, 75 mg, 75 mg single dose (A2), median, read-out: tmax): 1.25 h
Tmax (oral, 75 mg, 25 and 75 mg doses, read-out: tmax, latest individual value): ≤ 2.5 h
AUC(0-inf) (oral, 200 mg single dose (A3)): 32600 ng·h/mL
AUC(0-t) (oral, 200 mg single dose (A3)): 32300 ng·h/mL
Cmax (oral, 200 mg single dose (A3)): 3060 ng/mL
Vd/F (oral, 200 mg single dose (A3), read-out: Vz/F): 102 L
Vd/F (oral, 200 mg single dose (A3), read-out: Vz/F(norm)): 1.37 L/kg
half-life (oral, 200 mg, 200 mg single dose (A3)): 10.2 h
Tmax (oral, 200 mg, 200 mg single dose (A3), median, read-out: tmax): 1.75 h
AUC(0-inf) (oral, 400 mg single dose (A4)): 55100 ng·h/mL
AUC(0-t) (oral, 400 mg single dose (A4)): 53800 ng·h/mL
Cmax (oral, 400 mg single dose (A4)): 4510 ng/mL
Vd/F (oral, 400 mg single dose (A4), read-out: Vz/F): 122 L
Vd/F (oral, 400 mg single dose (A4), read-out: Vz/F(norm)): 1.74 L/kg
half-life (oral, 400 mg, 400 mg single dose (A4)): 11.7 h
Tmax (oral, 400 mg, 400 mg single dose (A4), median, read-out: tmax): 2.5 h
AUC(0-inf) (oral, 800 mg single dose (A5)): 78700 ng·h/mL
AUC(0-t) (oral, 800 mg single dose (A5)): 74500 ng·h/mL
Cmax (oral, 800 mg single dose (A5)): 5910 ng/mL
Vd/F (oral, 800 mg single dose (A5), read-out: Vz/F): 234 L
Vd/F (oral, 800 mg single dose (A5), read-out: Vz/F(norm)): 3.26 L/kg
half-life (oral, 800 mg, 800 mg single dose (A5)): 11.3 h
Tmax (oral, 800 mg, 800 mg single dose (A5), median, read-out: tmax): 1.8 h
AUC(0-inf) (oral, 1600 mg single dose (A6)): 86900 ng·h/mL
AUC(0-t) (oral, 1600 mg single dose (A6)): 73600 ng·h/mL
Cmax (oral, 1600 mg single dose (A6)): 5580 ng/mL
Vd/F (oral, 1600 mg single dose (A6), read-out: Vz/F): 525 L
Vd/F (oral, 1600 mg single dose (A6), read-out: Vz/F(norm)): 7.62 L/kg
half-life (oral, 1600 mg, 1600 mg single dose (A6)): 19.8 h
Tmax (oral, 1600 mg, 1600 mg single dose (A6), median, read-out: tmax): 2 h
Tmax (oral, higher dose levels (200 to 1600 mg), read-out: tmax, latest individual value): ≤ 6 h
Tmax (po, single oral doses 25 to 1600 mg, read-out: Median tmax, range across all doses): 1.3 to 2.5 h
CL renal (urine and plasma, oral, 400 mg single dose (A4)): 49.7 mL/min
CL renal (urine and plasma, oral, 800 mg single dose (A5)): 48.5 mL/min
CL renal (urine and plasma, oral, 1600 mg single dose (A6)): 47.6 mL/min
CL renal (urine, oral, 25 mg single dose (A1)): 70.5 mL/min
CL renal (urine, oral, 75 mg single dose (A2)): 71.8 mL/min
CL renal (urine, oral, 200 mg single dose (A3)): 63.5 mL/min
SMILES: Cn1cc(-c2cn(-c3ccc(OC(F)(F)F)cc3)c(=O)c3ncn(C)c23)cn1 [Compound I]
Dose proportionality of systemic exposure (Cmax and AUC) (between 25 and 75 mg): dose-proportional; also recorded: consistent with linear PK
